In patent US11986540B2, “Compositions including pafolacianine for the identification of malignant lesions” (ON TARGET LABORATORIES, LLC., priority 2022, dated 2024):
Where two headings read alike, the source gives them in different places.

Experiments:
[1] = system: tumor; assay: Tumor to background ratios with different mass doses; assay type: in vivo, human; details: dose of 0.025 mg per 1 kg bodyweight
Excerpt: Tumor to background ratios were studied with different mass doses of pafolacianine.

[2] = system: FR-negative A549 cell tumor xenografts; assay: Whole body imaging and tissue distribution, FR-negative A549 tumor xenografts; assay type: in vivo, mice
Description: The optimal dose range for pafolacianine with respect to tumor-to-background ratio in FR-positive tumor-bearing mice was 1 to 30 nmol/mouse, with lower fluorescence intensity observed in tumors at a lower dose (0.3 nmol) and higher fluorescence intensity observed in other tissues at doses above 30 nmol. In a second experiment, pafolacianine whole body imaging and tissue distribution was examined again; however, this experiment was performed in female nu/nu mice bearing FR-negative A549 cell tumor xenografts.

[3] = Phase 1a pharmacokinetics in healthy volunteers, single IV administration; assay type: in vivo, human; details: for AUC(0-t) / Tmax / AUC(0-inf) / clearance / Cmax / half-life / Vd: human, plasma, intravenous
Excerpt: A total of 73 potentially eligible healthy volunteers gave written acknowledgement of informed consent to participate in a Phase 1a study to assess the safety and pharmacokinetics of pafolacianine versus placebo. Fifty-four were found suitable for participation, of which 30 were enrolled in the study. Twenty-four subjects were white, 1 subject was Black/African-American, 1 was Asian, 1 was mixed race and 3 were of another race.
The pharmacokinetic (PK) analysis population was defined as all subjects who were randomized and received study treatment. Of note, the drug infusion was stopped prematurely in 1 subject, and interrupted in another subject. The pharmacokinetics of pafolacianine following single IV administration of 0.025, 0.05, 0.1, or 0.2 mg/kg was determined using non-compartmental analysis; the key PK parameters are summarized in Table 7.

[4] = Single IV dose toxicokinetics in rats; assay type: in vivo; details: Study Day 0; for AUC(0-t) / C0: rat, in vivo
Description: Following a single IV administration of pafolacianine to male and female rats, systemic exposure (AUClast) to pafolacianine appeared similar between males and females at the 46.3 mg/kg dose levels (Table 2). There was a slight trend for higher AUClast values in females versus males at the two lower dose levels; however, due to sparse sampling of blood, the significance of this slight trend could not be evaluated. Values for AUClast were calculated, but the time associated with the last measurable concentration was variable (Tlast; 5 min to 24 hr), which confounded the ability to assess dose proportionality. Terminal data were generally sparse and/or the terminal phase was not sufficiently defined (FIG. 4). Thus, parameters dependent on accurate determination of the terminal phase (AUCinf, T1/2, CL, Vz) were not reported.

[5] = Single IV dose toxicokinetics in dogs; assay type: in vivo; details: for AUC(0-t) / C0: dog, in vivo
Description: Following a single IV administration of pafolacianine to male and female dogs, systemic exposure (C0, AUClast) to pafolacianine appeared similar between males and females at all dose levels (Table 3). Similar to rats, dog AUClast values were calculated from a range of concentration-time data with Tlast values varying from 5 minutes to 4 hours. In addition, there were limited dogs with reportable TK at 0.9 mg/kg (N=1-2). As a consequence, dose proportionality was not assessed for dogs. Terminal data were generally sparse (i.e., 2 or fewer measurable concentrations in the terminal phase, (FIG. 4). Similar to rat, parameters dependent on accurate determination of the terminal phase (AUCinf, T1/2, CL, Vz) were not reported.

[6] = Plasma protein binding, equilibrium dialysis, dog plasma; assay type: in vitro ADME; details: Beagle, read-out: mean (±SD) percentage of plasma protein bound (converted)
Description: The plasma protein binding of pafolacianine was studied in vitro in fresh human, Sprague Dawley rat, and Beagle dog plasma using equilibrium dialysis. Pafolacianine was introduced into plasma samples, in duplicate, resulting in a final concentration of 5 μM. The mean (±SD) percentage of plasma protein bound pafolacianine was 99.1±0.1%, 98.6±0.1%, and 93.7±1.5% for rat, dog and human, respectively. Pafolacianine was highly bound to plasma protein in all species examined.

[7] = dose escalated 8-fold (0.025 to 0.2 mg/kg)
[8] = 0.025 mg/kg, in 20 ml 0.9% NaCl, 10- and 60-min infusion
[9] = 0.025 mg/kg, in 220 ml 5% dextrose, 60-min infusion
[10] = 0.05 mg/kg, in 220 ml 5% dextrose, 60-min infusion
[11] = 0.1 mg/kg, in 220 ml 5% dextrose, 60-min infusion
[12] = 0.2 mg/kg, in 220 ml 5% dextrose, 60-min infusion
[13] = 0.2 mg/kg, with pre-treatment of antihistamine (clemastine)
[14] = female rats, 3.1 mg/kg single IV
[15] = female rats, 30.8 mg/kg single IV
[16] = female rats, 46.3 mg/kg single IV
[17] = male rats, 30.8 mg/kg single IV
[18] = male rats, 46.3 mg/kg single IV
[19] = female dogs, 0.9 mg/kg single IV, Study Day 0, N = 1
[20] = female dogs, 9.3 mg/kg single IV, Study Day 0
[21] = female dogs, 13.9 mg/kg single IV, Study Day 0
[22] = male dogs, 0.9 mg/kg single IV, Study Day 0, N = 2
[23] = male dogs, 9.3 mg/kg single IV, Study Day 0
[24] = male dogs, 13.9 mg/kg single IV, Study Day 0

For `CC1(C)C(=CC=C2CCCC(C=CC3=[N+](CCCCS(=O)(=O)[O-])c4ccc(S(=O)(=O)O)cc4C3(C)C)=C2Oc2ccc(CC(NC(=O)c3ccc(NCc4cnc5nc(N)[nH]c(=O)c5n4)cc3)C(=O)O)cc2)N(CCCCS(=O)(=O)O)c2ccc(S(=O)(=O)O)cc21` (stereo not shown) [pafolacianine], the “tumor to background ratio” value [1] was “High”, the “fluorescence in FR-negative tumors” value [2] was “no fluorescence observed” and the fluorescence in kidneys [2] was “fluorescence was primarily noted in kidneys”. For the same molecule, the “increase in AUClast” value [3, 7] was roughly 22 fold, the “increase in Cmax” value [3, 7] was roughly 12 fold and the AUC(0-t) [3, 8] was 63.4 ng·h/mL. It also gave a Tmax [3, 8] of 0.75 h, an AUC(0-inf) ([3]; 0.025 mg/kg, in 20 ml 0.9% NaCl, 10- and 60-min infusion, read-out: AUC0-inf) of 66.4 ng·h/mL and a clearance ([3]; 0.025 mg/kg, in 20 ml 0.9% NaCl, 10- and 60-min infusion, read-out: CL (converted)) of 443 mL/min. The Cmax ([3]; 0.025 mg/kg, in 20 ml 0.9% NaCl, 10- and 60-min infusion, read-out: Cmax) was 93.3 ng/mL, the half-life ([3]; 0.025 mg/kg, in 20 ml 0.9% NaCl, 10- and 60-min infusion, read-out: T1/2 (converted)) was 0.416 h and the Vd ([3]; 0.025 mg/kg, in 20 ml 0.9% NaCl, 10- and 60-min infusion, read-out: Vz) was 15.9 L. The AUC(0-t) [3, 9] was 61.6 ng·h/mL, the Tmax [3, 9] was 0.95 h and the AUC(0-inf) ([3]; 0.025 mg/kg, in 220 ml 5% dextrose, 60-min infusion, read-out: AUC0-inf) was 63.6 ng·h/mL. It also gave a clearance ([3]; 0.025 mg/kg, in 220 ml 5% dextrose, 60-min infusion, read-out: CL (converted)) of 477 mL/min, a Cmax ([3]; 0.025 mg/kg, in 220 ml 5% dextrose, 60-min infusion, read-out: Cmax) of 59.1 ng/mL and a half-life ([3]; 0.025 mg/kg, in 220 ml 5% dextrose, 60-min infusion, read-out: T1/2 (converted)) of 0.438 h. For the same molecule, the Vd ([3]; 0.025 mg/kg, in 220 ml 5% dextrose, 60-min infusion, read-out: Vz) was 17.1 L, the AUC(0-inf) ([3]; 0.025 mg/kg, read-out: area under the plasma concentration-time curve to infinity (AUCinf)) was 63.6 ± 12.6 ng·h/mL and the half-life ([3]; 0.025 mg/kg, read-out: elimination half-life (converted)) was 0.44 ± 0.23 h. For the same molecule, the Cmax ([3]; 0.025 mg/kg, read-out: mean maximum plasma concentration (Cmax)) was 59.1 ± 5.94 ng/mL, the clearance ([3]; 0.025 mg/kg, read-out: mean plasma clearance (converted)) was 477 mL/min and the AUC(0-t) [3, 10] was 250 ng·h/mL. For the same molecule, the Tmax [3, 10] was 1.03 h, the AUC(0-inf) ([3]; 0.05 mg/kg, in 220 ml 5% dextrose, 60-min infusion, read-out: AUC0-inf) was 258 ng·h/mL and the clearance ([3]; 0.05 mg/kg, in 220 ml 5% dextrose, 60-min infusion, read-out: CL (converted)) was 245 mL/min. For the same molecule, the Cmax ([3]; 0.05 mg/kg, in 220 ml 5% dextrose, 60-min infusion, read-out: Cmax) was 184 ng/mL, the half-life ([3]; 0.05 mg/kg, in 220 ml 5% dextrose, 60-min infusion, read-out: T1/2 (converted)) was 0.931 h and the Vd ([3]; 0.05 mg/kg, in 220 ml 5% dextrose, 60-min infusion, read-out: Vz) was 19.2 L. It also gave an AUC(0-t) [3, 11] of 785 ng·h/mL, a Tmax [3, 11] of 1.02 h and an AUC(0-inf) ([3]; 0.1 mg/kg, in 220 ml 5% dextrose, 60-min infusion, read-out: AUC0-inf) of 799 ng·h/mL. For the same molecule, the clearance ([3]; 0.1 mg/kg, in 220 ml 5% dextrose, 60-min infusion, read-out: CL (converted)) was 161 mL/min, the Cmax ([3]; 0.1 mg/kg, in 220 ml 5% dextrose, 60-min infusion, read-out: Cmax) was 450 ng/mL and the half-life ([3]; 0.1 mg/kg, in 220 ml 5% dextrose, 60-min infusion, read-out: T1/2 (converted)) was 1.64 h. The Vd ([3]; 0.1 mg/kg, in 220 ml 5% dextrose, 60-min infusion, read-out: Vz) was 22.2 L, the AUC(0-t) [3, 12] was 1310 ng·h/mL and the Tmax [3, 12] was 1.09 h. For the same molecule, the AUC(0-inf) ([3]; 0.2 mg/kg, in 220 ml 5% dextrose, 60-min infusion, read-out: AUC0-inf) was 1340 ng·h/mL, the clearance ([3]; 0.2 mg/kg, in 220 ml 5% dextrose, 60-min infusion, read-out: CL (converted)) was 167 mL/min and the Cmax ([3]; 0.2 mg/kg, in 220 ml 5% dextrose, 60-min infusion, read-out: Cmax) was 640 ng/mL. The half-life ([3]; 0.2 mg/kg, in 220 ml 5% dextrose, 60-min infusion, read-out: T1/2 (converted)) was 2.66 h, the Vd ([3]; 0.2 mg/kg, in 220 ml 5% dextrose, 60-min infusion, read-out: Vz) was 38.8 L and the AUC(0-t) [3, 13] was 1400 ng·h/mL. It also gave a Tmax [3, 13] of 1 h, an AUC(0-inf) ([3]; 0.2 mg/kg, with pre-treatment of antihistamine (clemastine), read-out: AUC0-inf) of 1430 ng·h/mL and a clearance ([3]; 0.2 mg/kg, with pre-treatment of antihistamine (clemastine), read-out: CL (converted)) of 170 mL/min. The Cmax ([3]; 0.2 mg/kg, with pre-treatment of antihistamine (clemastine), read-out: Cmax) was 765 ng/mL, the half-life ([3]; 0.2 mg/kg, with pre-treatment of antihistamine (clemastine), read-out: T1/2 (converted)) was 2.4 h and the Vd ([3]; 0.2 mg/kg, with pre-treatment of antihistamine (clemastine), read-out: Vz) was 36 L. For the same molecule, the clearance ([3]; 0.025 to 0.2 mg/kg, read-out: clearance over the dose range) was 167 to 483 mL/min, the half-life ([3]; 0.025 to 0.2 mg/kg, read-out: half-life values range) was 0.4 to 2.7 h and the Vd ([3]; read-out: mean volume of distribution (Vz)) was 17.1 ± 5.99 L. The “DN AUClast” value [4, 14] was 0.816 (μg · h/mL)/(mg/kg), the “DN AUClast” value [4, 15] was 5.39 (μg · h/mL)/(mg/kg) and the “DN AUClast” value [4, 16] was 5.51 (μg · h/mL)/(mg/kg). For the same molecule, the “DN AUClast” value ([4]; male rats, 3.1 mg/kg single IV) was 0.184 (μg · h/mL)/(mg/kg), the “DN AUClast” value [4, 17] was 3.86 (μg · h/mL)/(mg/kg) and the “DN AUClast” value [4, 18] was 6.18 (μg · h/mL)/(mg/kg). For the same molecule, the AUC(0-t) [4, 14] was 2530 ng·h/mL, the C0 [4, 14] was 16200 ng/mL and the AUC(0-t) [4, 15] was 166000 ng·h/mL. For the same molecule, the C0 [4, 15] was 178000 ng/mL, the AUC(0-t) [4, 16] was 255000 ng·h/mL and the C0 [4, 16] was 231000 ng/mL. It also gave an AUC(0-t) ([4]; male rats, 3.1 mg/kg single IV) of 570 ng·h/mL, a C0 ([4]; male rats, 3.1 mg/kg single IV) of 6870 ng/mL and an AUC(0-t) [4, 17] of 119000 ng·h/mL. The C0 [4, 17] was 65700 ng/mL, the AUC(0-t) [4, 18] was 286000 ng·h/mL and the C0 [4, 18] was 174000 ng/mL. It also gave an AUC(0-t) [5, 19] of 362 ng·h/mL, a C0 [5, 19] of 4360 ng/mL and an AUC(0-t) [5, 20] of 17600 ng·h/mL. It also gave a C0 [5, 20] of 61500 ng/mL, an AUC(0-t) [5, 21] of 44000 ng·h/mL and a C0 [5, 21] of 109000 ng/mL. For the same molecule, the AUC(0-t) [5, 22] was 397 ng·h/mL, the C0 [5, 22] was 3790 ng/mL and the AUC(0-t) [5, 23] was 16800 ng·h/mL. It also gave a C0 [5, 23] of 58500 ng/mL, an AUC(0-t) [5, 24] of 42100 ng·h/mL and a C0 [5, 24] of 107000 ng/mL. The “DN AUClast” value [5, 19] was 0.402 (μg · h/mL)/(mg/kg), the “DN AUClast” value [5, 20] was 1.89 (μg · h/mL)/(mg/kg) and the “DN AUClast” value [5, 21] was 3.17 (μg · h/mL)/(mg/kg). For the same molecule, the “DN AUClast” value [5, 22] was 0.442 (μg · h/mL)/(mg/kg), the “DN AUClast” value [5, 23] was 1.81 (μg · h/mL)/(mg/kg) and the “DN AUClast” value [5, 24] was 3.03 (μg · h/mL)/(mg/kg). For the same molecule, the fraction unbound at 5 μM [6] was 0.014.
